Measured values from US10995068B2, “Synthetic sphingolipid-like molecules, drugs, methods of their synthesis and methods of treatment” (The Regents of the University of California, priority 2015, dated 2021).

Tested on: colon cancer cells SW620
Test: Colony formation assay, SW620
Assay type: cell-based, human
Settings: anchorage-independent growth, colonies counted after 12 days
Description: The difference in sensitivity stems from the inability of neoplastic cells to adapt to decreases of metabolism.
Cell analysis: Viability and 4F2hc expression are determined by vital dye exclusion and flow cytometry. Oxygen consumption is measured with an XF24 Extracellular Flux Analyzer (Seahorse Bioscience); values are normalized to total protein. Confocal microscopy is performed on either a Zeiss LSM780 or a Nikon Eclipse Ti; vacuolation was monitored using a Nikon TE2000-S equipped with DIC filters. Anchorage-independent growth of SW620 cells is measured in DMEM-10 containing 0.35% agarose with a 0.5% agarose bottom layer. PBMNCs are obtained from the normal blood donor program run by the CTSA-supported Institute for Clinical and Translational Science at UCI under IRB protocols 2015-1883 (Edinger) and 2001-2058 (ICTS). […] Plates were incubated at 37° C. in a humidified atmosphere containing 5% CO2 and colonies were counted after 12 days.
Cell culture and reagents. […] Cell viability was measured by vital dye exclusion using either propidium iodide or DAPI at 1 μg/ml. Analysis of cell surface 4F2hc levels with PE-conjugated anti-CD98 was restricted to viable cells as determined by DAPI exclusion. Anchorage-independent growth of SW620 cells was measured in DMEM-10 containing 0.35% low melt agarose with a 0.5% agarose bottom layer. […]

CCCCCCCCc1ccc([C@H]2CCN[C@@H]2CO)cc1.Cl [Compound 5, (2S,3R)-2-(hydroxymethyl)-3-(4-octylphenyl)Pyrrolidinium chloride]
sensitivity in colony formation assays: highly sensitive
